Square brackets hold non-standard residues; d marks the D form. Peptide text beside a SMILES is read from it. * marks the point of attachment. Propanoyl(3-indol-3-yl) = O=C(CCc1c[nH]c2ccccc12)*; Acetyl(1-adamantyl) = O=C(CC12CC3CC(CC(C3)C1)C2)*; Propanoyl(3-(4-F-phenyl)) = O=C(CCc1ccc(F)cc1)*; Propanoyl(3-(4-MeO-Ph)) = COc1ccc(CCC(=O)*)cc1; Propanoyl(3-(4-Cl-Ph)) = O=C(CCc1ccc(Cl)cc1)*; X7 = CC1(C)CN(CC(=O)*)C(=O)C(c2ccccc2)=N1; Phenylacetyl(4-Cl) = O=C(Cc1ccc(Cl)cc1)*; Phenylacetyl(4-F) = O=C(Cc1ccc(F)cc1)*; 2Nal = N[C@@H](Cc1ccc2ccccc2c1)C(=O)O; Desaminohistidyl = O=C(CCc1c[nH]cn1)*; Desaminotyrosyl = O=C(CCc1ccc(O)cc1)*; Cyclopentanecarbonyl = O=C(C1CCCC1)*; NMeY = CN[C@@H](Cc1ccc(O)cc1)C(=O)O; Hydrocinnamoyl = O=C(CCc1ccccc1)*; X13 = O=C(CCc1ccc(C(F)(F)F)cc1)*; d2Thi = N[C@H](Cc1cccs1)C(=O)O; X15 = O=C(Cc1ccc(O)cc1)*; PhAc = O=C(Cc1ccccc1)*; X6 = O=C(CCc1ccccc1F)*
Molecular target: T1, LHRH receptors (Rattus norvegicus, UniProt P30969)
T1 construct: Pituitary membranes containing LHRH receptors are prepared in batches from quick-frozen rat pituitaries; tissue Hilltop Labs; host or cells: rat pituitary membranes
T1 sequence (P30969 1-327): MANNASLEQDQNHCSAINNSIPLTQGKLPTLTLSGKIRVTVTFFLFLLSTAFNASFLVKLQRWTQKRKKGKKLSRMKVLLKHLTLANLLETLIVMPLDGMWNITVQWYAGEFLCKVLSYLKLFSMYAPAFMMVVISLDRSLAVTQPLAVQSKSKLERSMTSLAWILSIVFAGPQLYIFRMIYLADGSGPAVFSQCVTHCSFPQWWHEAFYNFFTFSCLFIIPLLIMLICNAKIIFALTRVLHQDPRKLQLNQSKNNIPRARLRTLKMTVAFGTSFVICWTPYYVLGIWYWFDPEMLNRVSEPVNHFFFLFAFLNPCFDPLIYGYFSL
Assay: Receptor Binding (radioligand receptor binding assay)
Conditions: table 3; rat pituitary membranes, radioiodinated [D-Leu^6 -des Gly^10 ]-LHRH ethyl amide 50 pM, 2 hours at 4° C.; read-out: Receptor Binding pkI (converted)

| SMILES | Ki [nM] |
| --- | --- |
| CCNC(=O)[C@@H]1CCCN1C(=O)[C@H](CCCNC(=N)N)NC(=O)[C@H](CC(C)C)NC(=O)[C@@H](CC(C)C)NC(=O)[C@H](Cc1ccc(O)cc1)NC(=O)[C@H](CO)NC(=O)[C@H](Cc1c[nH]c2ccccc12)NC(=O)CCc1ccccc1 [Compound 66, (3-9)[N-(3-Phenylpropionyl)-Trp^3 -D-Leu^6 -Pro^9 -NHEt]LHRH] (Hydrocinnamoyl-WSY[dL]LRP-NHEt) | 1.78 |
| CCNC(=O)[C@@H]1CCCN1C(=O)[C@H](CCCNC(=N)N)NC(=O)[C@H](CC(C)C)NC(=O)[C@@H](CC(C)C)NC(=O)[C@H](Cc1ccc(O)cc1)NC(=O)[C@H](CO)NC(=O)[C@H](Cc1c[nH]c2ccccc12)NC(=O)Cc1ccccc1 [Compound 68, (3-9)[N-(Phenylacetyl)-Trp^3 -D-Leu^6 -Pro^9 -NHEt]LHRH] (PhAc-WSY[dL]LRP-NHEt) | 21.9 |
| CCNC(=O)[C@@H]1CCCN1C(=O)[C@H](CCCNC(=N)N)NC(=O)[C@H](CC(C)C)NC(=O)[C@@H](Cc1c[nH]c2ccccc12)NC(=O)[C@H](Cc1ccc(O)cc1)NC(=O)[C@H](CO)NC(=O)[C@H](Cc1c[nH]c2ccccc12)NC(=O)[C@H](Cc1c[nH]cn1)NC(=O)CCc1cnc[nH]1 [Compound 69, N-(3-(5-Imidazolyl)propionyl)-His-Trp-Ser-Tyr-D-Trp-Leu-Arg-Pro-NHEt] (Desaminohistidyl-HWSY[dW]LRP-NHEt) | 1.05 |
| CCNC(=O)[C@@H]1CCCN1C(=O)[C@H](CCCNC(=N)N)NC(=O)[C@H](CC(C)C)NC(=O)[C@@H](CCCNC(=N)N)NC(=O)[C@H](Cc1ccc(O)cc1)NC(=O)[C@H](CO)NC(=O)[C@H](Cc1c[nH]c2ccccc12)NC(=O)[C@H](Cc1ccccc1)NC(=O)C1CCCC1 [Compound 70, N-(Cyclopentylcarbonyl)-Phe-Trp-Ser-Tyr-D-Arg-Leu-Arg-Pro-NHEt] (Cyclopentanecarbonyl-FWSY[dR]LRP-NHEt) | 0.145 |
| CCNC(=O)[C@@H]1CCCN1C(=O)[C@H](CCCNC(=N)N)NC(=O)[C@H](CC(C)C)NC(=O)[C@@H](Cc1c[nH]c2ccccc12)NC(=O)[C@H](Cc1ccc(O)cc1)NC(=O)[C@H](CO)NC(=O)[C@H](Cc1c[nH]c2ccccc12)NC(=O)[C@H](Cc1ccccc1)NC(C)=O [Compound 72, N-Acetyl-Phe-Trp-Ser-Tyr-D-Trp-Leu-Arg-ProNHEt] (Ac-FWSY[dW]LRP-NHEt) | 0.166 |
| CCNC(=O)[C@@H]1CCCN1C(=O)[C@H](CCCNC(=N)N)NC(=O)[C@H](CC(C)C)NC(=O)[C@@H](Cc1c[nH]c2ccccc12)NC(=O)[C@H](Cc1ccc(O)cc1)NC(=O)[C@H](CO)NC(=O)Cc1ccc(O)cc1 [Compound 73, (4-9)[N-(3-(4-Hydroxyphenyl)acetyl) -Ser^4 -D-Trp^6 -Pro^9 NHEt]LHRH] (X15-SY[dW]LRP-NHEt) | 70.8 |
| CCNC(=O)[C@@H]1CCCN1C(=O)[C@H](CCCNC(=N)N)NC(=O)[C@H](CC(C)C)NC(=O)[C@@H](Cc1c[nH]c2ccccc12)NC(=O)[C@H](Cc1ccc(O)cc1)NC(=O)[C@H](CO)NC(=O)Cc1ccc(Cl)cc1 [Compound 75, (4-9)[N-(3-(4-Chlorophenyl)acetyl) -Ser^4 -D-Trp^6 -Pro^9 NHEt]LHRH] ({Phenylacetyl(4-Cl)}-SY[dW]LRP-NHEt) | 7.08 |
| CCNC(=O)[C@@H]1CCCN1C(=O)[C@H](CCCNC(=N)N)NC(=O)[C@H](CC(C)C)NC(=O)[C@@H](Cc1c[nH]c2ccccc12)NC(=O)[C@H](Cc1ccc(O)cc1)NC(=O)[C@H](CO)NC(=O)CCc1ccc(OC)cc1 [Compound 78, (4-9)[N-(3-(4-Methoxyphenyl)propionyl) -Ser^4 -D-Trp^6 -Pro^9 NHEt]LHRH] ({Propanoyl(3-(4-MeO-Ph))}-SY[dW]LRP-NHEt) | 10.7 |
| CCNC(=O)[C@@H]1CCCN1C(=O)[C@H](CCCNC(=N)N)NC(=O)[C@H](CC(C)C)NC(=O)[C@@H](Cc1c[nH]c2ccccc12)NC(=O)[C@H](Cc1ccc(O)cc1)NC(=O)[C@H](CO)NC(=O)CCc1ccc(C(F)(F)F)cc1 [Compound 79, (4-9)[N-(3-(4-Trifluoromethylphenyl)propionyl)-Ser^4 -D-Trp^6 -Pro^9 NHEt]LHRH] (X13-SY[dW]LRP-NHEt) | 1.95 |
| CCNC(=O)[C@@H]1CCCN1C(=O)[C@H](CCCNC(=N)N)NC(=O)[C@H](CC(C)C)NC(=O)[C@@H](Cc1cccs1)NC(=O)[C@H](Cc1ccc(O)cc1)NC(=O)[C@H](CO)NC(=O)CCc1c[nH]c2ccccc12 [Compound 80, (4-9)[N-(3-(3-Indole)propionyl) -Ser^4 -D-Thia^6 -Pro^9 NHEt]LHRH] ({Propanoyl(3-indol-3-yl)}-SY[d2Thi]LRP-NHEt) | 50.1 |
| CCNC(=O)[C@@H]1CCCN1C(=O)[C@H](CCCNC(=N)N)NC(=O)[C@H](CC(C)C)NC(=O)[C@@H](Cc1c[nH]c2ccccc12)NC(=O)[C@H](Cc1ccc(O)cc1)NC(=O)[C@H](CO)NC(=O)[C@H](Cc1ccc2ccccc2c1)NC(C)=O [Compound 84, (3-9)[N-Ac-2-Nal^3 -D-Trp^6 -Pro^9 NHEt]LHRH] (Ac-[2Nal]SY[dW]LRP-NHEt) | 1.41 |
| CCNC(=O)[C@@H]1CCCN1C(=O)[C@H](CCCN=C(N)N)NC(=O)[C@H](CC(C)C)NC(=O)[C@@H](Cc1c[nH]c2ccccc12)NC(=O)[C@H](Cc1ccc(O)cc1)NC(=O)[C@H](CO)NC(=O)[C@@H](Cc1ccc(O)cc1)NC(=O)CCc1ccc(Cl)cc1 [Compound 86, (3-9)[N-(3-(4-Chlorophenyl)propionyl)-D -Tyr^3 -D-Trp^6 -Pro^9 NHEt]LHRH] ({Propanoyl(3-(4-Cl-Ph))}-[dY]SY[dW]LRP-NHEt) | 0.0174 |
| CCNC(=O)[C@@H]1CCCN1C(=O)[C@H](CCCN=C(N)N)NC(=O)[C@H](CC(C)C)NC(=O)[C@@H](Cc1c[nH]c2ccccc12)NC(=O)[C@H](Cc1ccc(O)cc1)NC(=O)[C@H](CO)NC(=O)[C@H](Cc1ccc(O)cc1)NC(=O)CCc1ccc(Cl)cc1 [Compound 87, (3-9)[N-(3-(4-Chlorophenyl)propionyl) -Tyr^3 -D-Trp^6 -Pro^9 NHEt]LHRH] ({Propanoyl(3-(4-Cl-Ph))}-YSY[dW]LRP-NHEt) | 0.129 |

The next lines start with the values.

| Ki [nM] | SMILES |
| --- | --- |
| 0.269 | CCNC(=O)[C@@H]1CCCN1C(=O)[C@H](CCCNC(=N)N)NC(=O)[C@H](CC(C)C)NC(=O)[C@@H](Cc1c[nH]c2ccccc12)NC(=O)[C@H](Cc1ccc(O)cc1)NC(=O)[C@H](CO)NC(=O)[C@H](Cc1c[nH]c2ccccc12)NC(=O)CCc1ccccc1 [Compound 65, (3-9)[N-(3-Phenylpropionyl)-Trp^3 -D-Trp^6 -Pro^9 -NHEt]LHRH] (Hydrocinnamoyl-WSY[dW]LRP-NHEt) |
| 3.16 | CCNC(=O)[C@@H]1CCCN1C(=O)[C@H](CCCNC(=N)N)NC(=O)[C@H](CC(C)C)NC(=O)[C@@H](Cc1c[nH]c2ccccc12)NC(=O)[C@H](CCCCN)NC(=O)[C@H](CO)NC(=O)[C@H](Cc1c[nH]c2ccccc12)NC(=O)[C@H](Cc1c[nH]cn1)NC(=O)CN1CC(C)(C)N=C(c2ccccc2)C1=O [Compound 71, N-(5,6-Dihydro-5,5-dimethyl-2-oxo-3-phenyl-1-(2H)-pyrazineacetyl)-His-Trp-Ser-Lys-D-Trp-Leu-Arg-ProNHEt] (X7-HWSK[dW]LRP-NHEt) |
| 26.3 | CCNC(=O)[C@@H]1CCCN1C(=O)[C@H](CCCNC(=N)N)NC(=O)[C@H](CC(C)C)NC(=O)[C@@H](Cc1c[nH]c2ccccc12)NC(=O)[C@H](Cc1ccc(O)cc1)NC(=O)[C@H](CO)NC(=O)Cc1ccc(F)cc1 [Compound 74, (4-9)[N-(3-(4-Fluorophenyl)acetyl) -Ser^4 -D-Trp^6 -Pro^9 NHEt]LHRH] ({Phenylacetyl(4-F)}-SY[dW]LRP-NHEt) |
| 43.7 | CCNC(=O)[C@@H]1CCCN1C(=O)[C@H](CCCNC(=N)N)NC(=O)[C@H](CC(C)C)NC(=O)[C@@H](Cc1c[nH]c2ccccc12)NC(=O)[C@H](Cc1ccc(O)cc1)NC(=O)[C@H](CO)NC(=O)CCc1ccc(O)cc1 [Compound 76, (4-9)[N-(3-(4-Hydroxyphenyl)propionyl) -Ser^4 -D-Trp^6 -Pro^9 NHEt]LHRH] (Desaminotyrosyl-SY[dW]LRP-NHEt) |
| 3.98 | CCNC(=O)[C@@H]1CCCN1C(=O)[C@H](CCCNC(=N)N)NC(=O)[C@H](CC(C)C)NC(=O)[C@@H](Cc1c[nH]c2ccccc12)NC(=O)[C@H](Cc1ccc(O)cc1)NC(=O)[C@H](CO)NC(=O)CCc1ccc(F)cc1 [Compound 77, (4-9)[N-(3-(4-Fluorophenyl)propionyl) -Ser^4 -D-Trp^6 -Pro^9 NHEt]LHRH] ({Propanoyl(3-(4-F-phenyl))}-SY[dW]LRP-NHEt) |
| 0.589 | CCNC(=O)[C@@H]1CCCN1C(=O)[C@H](CCCNC(=N)N)NC(=O)[C@H](CC(C)C)NC(=O)[C@@H](Cc1c[nH]c2ccccc12)NC(=O)[C@H](Cc1ccc(O)cc1)N(C)C(=O)[C@H](CO)NC(=O)CC12CC3CC(CC(C3)C1)C2 [Compound 81, N-[(1-Adamantyl)acetyl]-Ser-N-Me-Tyr-D-Trp-Leu-Arg-Pro -NHEt] ({Acetyl(1-adamantyl)}-S[NMeY][dW]LRP-NHEt) |
| 0.0741 | CCNC(=O)[C@@H]1CCCN1C(=O)[C@H](CCCN=C(N)N)NC(=O)[C@H](CC(C)C)NC(=O)[C@@H](Cc1c[nH]c2ccccc12)NC(=O)[C@H](Cc1ccc(O)cc1)NC(=O)[C@H](CO)NC(=O)[C@@H](Cc1c[nH]c2ccccc12)NC(=O)CCc1ccc(Cl)cc1 [Compound 85, (3 9)[N-(3-(4-Chlorophenyl)propionyl)-D-Trp^3,6 -Pro^9 NHEt]LHRH] ({Propanoyl(3-(4-Cl-Ph))}-[dW]SY[dW]LRP-NHEt) |
| 0.0575 | CCNC(=O)[C@@H]1CCCN1C(=O)[C@H](CCCNC(=N)N)NC(=O)[C@H](CC(C)C)NC(=O)[C@@H](Cc1c[nH]c2ccccc12)NC(=O)[C@H](Cc1ccc(O)cc1)NC(=O)[C@H](CO)NC(=O)[C@H](Cc1c[nH]c2ccccc12)NC(=O)CCc1ccccc1F [Compound 88, (3-9)[N-(3-(2-Fluorophenyl)propionyl) -Trp^3 -D-Trp^6 -Pro^9 NHEt]LHRH] (X6-WSY[dW]LRP-NHEt) |
